Measured values: patent US20040014740A1 (priority 2002, published 2004)

System: binding site of a radiolabelled ligand (assay of U.S. Patent No. 5,859,188)
Test: binding assay as described in U.S. Patent No. 5,859,188: percent displacement of a radiolabelled ligand
Settings: for Testing Result % inhibition at indicated concentration, Test 1 / Testing Result % inhibition at indicated concentration: percent displacement of radiolabelled ligand; for Testing Result % inhibition at indicated concentration, Test 2: concentration not given for Test 2
Protocol: Selected compounds were evaluated for their anti-parasitic activity in a binding assay as described in U.S. Patent No. 5,859,188 (Geary, et.al., 1999). Results of the evaluations are given in the following Table wherein % inhibition means percent displacement of a radiolabelled ligand as described.

Structure (SMILES)	Testing Result % inhibition at indicated concentration, Test 1 (25 uM)	Testing Result % inhibition at indicated concentration, Test 2	Testing Result % inhibition at indicated concentration (25 uM)	other results
CCOC(=O)c1c(NC(=O)CN2CCCC(O)C2)sc2c1CCCC2 (stereo not shown) [gg, ethyl 2-{[(3-hydroxypiperidin-1-yl)acetyl]amino}-4,5,6,7-tetrahydro-1-benzothiophene-3-carboxylate]			68-73% at 25 uM	
CCOC(=O)c1c(NC(=O)CN2CCCCCC2)sc2c1CCCC2 [h, ethyl 2-[(azepan-1-ylacetyl)amino]-4,5,6,7-tetrahydro-1-benzothiophene-3-carboxylate]			46% at 25 uM	
CCOC(=O)c1cc(-c2ccsc2)sc1NC(=O)CN1CCCCC1 [aa, ethyl 5-[(piperidin-1-ylacetyl)amino]-2,3′-bithiophene-4-carboxylate]	46-66%	37-43%		
CCOC(=O)c1c(NC(=O)C(C)N2CCCCC2)sc2c1CCCC2 (stereo not shown) [o, ethyl 2-[(2-piperidin-1-ylpropanoyl)amino]-4,5,6,7-tetrahydro-1-benzothiophene-3-carboxylate]	46-73%	38-40%		
CCOC(=O)C1=C(NC(=O)CN2CCOCC2)SC2CCCCCC12 (stereo not shown) [Compound D]			38% at 25 uM	
CCOC(=O)c1c(NC(=O)CN2CCCCC2)sc2c1CCC(C(C)(C)C)C2 (stereo not shown) [n, ethyl 6-tert-butyl-2-[(piperidin-1-ylacetyl)amino]-4,5,6,7-tetrahydro-1-benzothiophene-3-carboxylate]			13% at 25 uM	
CCOC(=O)c1c(NC(=O)CN2CCC2)sc2c1CCCC2 [i, ethyl 2-[(azetidin-1-ylacetyl)amino]-4,5,6,7-tetrahydro-1-benzothiophene-3-carboxylate]			28% at 25 uM	
CCOC(=O)c1c(NC(=O)CN2CCCCC2)sc2c1CCS2 [ee, ethyl 2-[(piperidin-1-ylacetyl)amino]-4,5-dihydrothieno[2,3-b]thiophene-3-carboxylate]			61-72% at 25 uM	
CCOC(=O)c1c(NC(=O)CN2CCCCCC2)sc2c1CCC2 [k, ethyl 2-[(azepan-1-ylacetyl)amino]-5,6-dihydro-4H-cyclopenta[b]thiophene-3-carboxylate]			77-70% at 25 uM	
CCOC(=O)c1c(NC(=O)CN2CCCC2)sc2c1CCC2 [j, ethyl 2-[(pyrrolidin-1-ylacetyl)amino]-5,6-dihydro-4H-cyclopenta[b]thiophene-3-carboxylate]			83-88% at 25 uM	
CCOC(=O)c1c(NC(=O)CN2CCCCC2)sc2c1CCN(C(=O)OCC)C2 [p, diethyl 2-[(piperidin-1-ylacetyl)amino]-4,7-dihydrothieno[2,3-c]pyridine-3,6(5H)-dicarboxylate]	50-52%	33-49%		
CCOC(=O)c1c(-c2ccsc2)csc1NC(=O)CN1CCCCC1 [bb, ethyl 5-[(piperidin-1-ylacetyl)amino]-3,3′-bithiophene-4-carboxylate]	40-63%	18-38%		
CCOC(=O)c1c(NC(=O)CN2CCCCC2)sc2c1CCCC2 [Compound B]				Testing Result % inhibition at indicated concentration (1 uM): 59% at 1 uM
CCOC(=O)C1=C(NC(=O)CN2CCCCC2)SC2CCCCCC12 (stereo not shown) [C]	82%	53%		
CC(C)OC(=O)c1c(NC(=O)CN2CCCCC2)sc2c1CCCC2 [cc, isopropyl 2-[(piperidin-1-ylacetyl)amino]-4,5,6,7-tetrahydro-1-benzothiophene-3-carboxylate]			34-54% at 25 uM	
CCOC(=O)c1c(NC(=O)CN2CCCCC2)sc2c1CCC2 [A, ethyl 2-{[2-(1-piperidinyl)acetyl]amino}-5,6-dihydro-4H-cyclopenta[b]thiophene-3-carboxylate]				Testing Result % inhibition at indicated concentration (3 uM): 69% at 3 uM
CCOC(=O)c1c(NC(=O)CN2CCCCC2)sc(Cl)c1-c1ccccc1 [l, ethyl 5-chloro-4-phenyl-2-[(piperidin-1-ylacetyl)amino]thiophene-3-carboxylate]			35% at 25 uM	
CCOC(=O)c1c(NC(=O)CN2CCC(O)CC2)sc2c1CCCC2 [ff, ethyl 2-{[(4-hydroxypiperidin-1-yl)acetyl]amino}-4,5,6,7-tetrahydro-1-benzothiophene-3-carboxylate]			31-34% at 25 uM	
CC(C)OC(=O)c1c(-c2ccc(Cl)c(Cl)c2)csc1NC(=O)CN1CCCCC1 [dd, isopropyl 4-(3,4-dichlorophenyl)-2-[(piperidin-1-ylacetyl)amino]thiophene-3-carboxylate]			0-9% at 25 uM	
CCOC(=O)c1c(NC(=O)CN2CCCCC2)sc2c1CCC(c1ccccc1)C2 (stereo not shown) [m, ethyl 6-phenyl-2-[(piperidin-1-ylacetyl)amino]-4,5,6,7-tetrahydro-1-benzothiophene-3-carboxylate]			36% at 25 uM	
CCOC(=O)c1c(NC(=O)CN2CCCC2)sc2c1CCCC2 [g, ethyl 2-[(pyrrolidin-1-ylacetyl)amino]-4,5,6,7-tetrahydro-1-benzothiophene-3-carboxylate]			68-75% at 25 uM	

More lines, main results first:

Testing Result % inhibition at indicated concentration, Test 1 (25 uM)	Testing Result % inhibition at indicated concentration, Test 2	Testing Result % inhibition at indicated concentration (25 uM)	Structure (SMILES)	other results
48-51%	0-14%		CCOC(=O)c1c(NC(=O)CN2CCCCC2)sc2c1CCN(Cc1ccccc1)C2 [u, ethyl 6-benzyl-2-[(piperidin-1-ylacetyl)amino]-4,5,6,7-tetrahydrothieno[2,3-c]pyridine-3-carboxylate]	
42%	26%		CCOC(=O)c1c(-c2ccc(C)cn2)csc1NC(=O)CN1CCCCC1 [r, ethyl 4-(5-methylpyridin-2-yl)-2-[(piperidin-1-ylacetyl)amino]thiophene-3-carboxylate]	
70-75%	24-40%		CCOC(=O)c1c(-c2ccco2)csc1NC(=O)CN1CCCCC1 [t, ethyl 4-(2-furyl)-2-[(piperidin-1-ylacetyl)amino]thiophene-3-carboxylate]	
58-70%	39-47%		CCOC(=O)c1c(C)csc1NC(=O)CN1CCCCC1 [w, ethyl 4-methyl-2-[(piperidin-1-ylacetyl)amino]thiophene-3-carboxylate]	
93-100%	69-79%		CCOC(=O)c1c(NC(=O)CN2CCCCC2)sc2c1CC(C)(CC)OC2 (stereo not shown) [s, ethyl 5-ethyl-5-methyl-2-[(piperidin-1-ylacetyl)amino]-4,7-dihydro-5H-thieno[2,3-c]pyran-3-carboxylate]	
44-55%	37-43%		CCOC(=O)c1c(-c2ccc(Br)cc2)csc1NC(=O)CN1CCCCC1 [z, ethyl 4-(4-bromophenyl)-2-[(piperidin-1-ylacetyl)amino]thiophene-3-carboxylate]	
52-65%	33-54%		CCCOC(=O)c1c(NC(=O)CN2CCCCC2)sc2c1CCCC2 [y, propyl 2-[(piperidin-1-ylacetyl)amino]-4,5,6,7-tetrahydro-1-benzothiophene-3-carboxylate]	
55-70%	41-55%		COC(=O)c1c(NC(=O)CN2CCCCC2)sc2c1CCCC2 [x, methyl 2-[(piperidin-1-ylacetyl)amino]-4,5,6,7-tetrahydro-1-benzothiophene-3-carboxylate]	
65-74%	15-22%		CCOC(=O)c1c(NC(=O)CN2CCCCC2)sc2c1CC(C)CC2 (stereo not shown) [q, ethyl 5-methyl-2-[(piperidin-1-ylacetyl)amino]-4,5,6,7-tetrahydro-1-benzothiophene-3-carboxylate]	
15-43%	14-17%		CCOC(=O)c1c(-c2ccncc2)csc1NC(=O)CN1CCCCC1 [v, ethyl 2-[(piperidin-1-ylacetyl)amino]-4-pyridin-4-ylthiophene-3-carboxylate]	
